Experiments:
[1] = target: T1, enzyme FAAH (Fatty Acid Amido Hydrolase) (Mus musculus, UniProt O08914); experiment: radioenzymatic test of FAAH inhibition (hydrolysis of ((1-3H)ethanolamine)-anandamide, mouse brain membrane homogenates); format: biochemical; settings: mouse brain membrane homogenate; 10 μM anandamide; 15 minutes at 25° C.; read-out: IC50 (concentration which inhibits the control enzymatic activity of FAAH by 50%)
T1 construct: The membrane homogenates are prepared at the time of use by homogenization of the tissues with a Polytron; from tissue; host or cells: mouse brain (minus the cerebellum), membrane homogenate
T1 sequence (O08914 1-579): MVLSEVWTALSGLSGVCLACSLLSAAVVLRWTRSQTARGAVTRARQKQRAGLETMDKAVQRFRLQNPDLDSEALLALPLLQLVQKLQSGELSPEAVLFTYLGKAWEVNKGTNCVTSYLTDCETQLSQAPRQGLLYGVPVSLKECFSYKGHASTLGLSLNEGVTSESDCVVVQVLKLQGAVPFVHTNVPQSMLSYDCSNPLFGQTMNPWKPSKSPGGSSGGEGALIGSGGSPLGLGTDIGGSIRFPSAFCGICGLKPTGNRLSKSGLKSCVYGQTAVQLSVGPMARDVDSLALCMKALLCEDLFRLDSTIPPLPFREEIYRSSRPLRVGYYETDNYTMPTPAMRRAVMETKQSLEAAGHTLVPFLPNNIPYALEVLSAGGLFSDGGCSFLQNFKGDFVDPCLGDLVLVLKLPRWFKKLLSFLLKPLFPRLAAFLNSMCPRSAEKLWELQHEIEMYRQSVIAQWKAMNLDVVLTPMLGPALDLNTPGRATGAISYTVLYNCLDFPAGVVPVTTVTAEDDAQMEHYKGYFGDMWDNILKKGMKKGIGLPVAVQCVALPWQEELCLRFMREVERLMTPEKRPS
Method: The compounds of the invention have formed the subject of pharmacological trials which make it possible to determine their inhibitory effect on the enzyme FAAH (Fatty Acid Amido Hydrolase).
Thus, mouse brains (minus the cerebellum) are removed and stored at −80° C. The membrane homogenates are prepared at the time of use by homogenization of the tissues with a Polytron in a 10 mM Tris-HCl buffer (pH 8) comprising 150 mM NaCl and 1 mM EDTA. The enzymatic reaction is subsequently carried out in 70 μl of buffer comprising bovine serum albumin free from fatty acids (1 mg/ml). The test compounds, at various concentrations, the ((1-^3H)ethanolamine)-anandamide (specific activity of 15-20 Ci/mmol), diluted to 10 μM with non-radiolabelled anandamide, and the membrane preparation (400 μg of frozen tissue per assay) are successively added. After 15 minutes at 25° C., the enzymatic reaction is halted by addition of 140 μl of chloroform/methanol (2:1). The mixture is stirred for 10 minutes and is then centrifuged at 3500 g for 15 minutes. An aliquot (30 μl) of the aqueous phase comprising the (1-^3H)ethanolamine is counted by liquid scintillation.

| Compound | melting point [°C] | IC50 [1] [nM] |
| --- | --- | --- |
| CCCCCNC(=O)OC(C)C(N)=O (stereo not drawn) [Compound 1, 2-Amino-1-methyl-2-oxoethyl (pent-1-yl)carbamate] | 132 to 134 |  |
| CCCCCCNC(=O)OC(C)C(N)=O (stereo not drawn) [Compound 11, 2-Amino-1-methyl-2-oxoethyl (hex-1-yl)carbamate] | 123 to 125 |  |
| CNC(=O)COC(=O)NC1CCCCCCC1 [Compound 22, 2-(Methylamino)-2-oxoethyl (cyclooct-1-yl)carbamate] | 81 to 83 | 696 |
| CCCCCCCCNC(=O)OC(C)C(N)=O (stereo not drawn) [Compound 23, 2-Amino-1-methyl-2-oxoethyl (oct-1-yl)carbamate] | 130 to 132 |  |
| CCCCCCC(C)NC(=O)OCC(=O)NC (stereo not drawn) [Compound 24, 2-(Methylamino)-2-oxoethyl (1-methylhept-1-yl)carbamate] |  | 89 |
| CCCCCCCCCCNC(=O)OCC(=O)NC [Compound 26, 2-(Methylamino)-2-oxoethyl decylcarbamate] | 98 to 100 |  |
| CCCCCCCCCCNC(=O)OC(C)C(N)=O (stereo not drawn) [Compound 27, 2-Amino-1-methyl-2-oxoethyl (dec-1-yl)carbamate] | 133 to 135 |  |
| CCCCCCCCCC(C)NC(=O)OCC(=O)NC (stereo not drawn) [Compound 28, 2-(Methylamino)-2-oxoethyl (1-methyldec-1-yl)carbamate] | 71 to 73 |  |
| CNC(=O)COC(=O)NC1CCCCCCCCCCC1 [Compound 29, 2-(Methylamino)-2-oxoethyl (cyclododec-1-yl)carbamate] | 171 to 173 |  |
| CCCCCCCCCCCCNC(=O)OCC(=O)NC [Compound 30, 2-(Methylamino)-2-oxoethyl (dodec-1-yl)carbamate] | 103 to 105 |  |
| CCCCCCCCCCCCCCNC(=O)OCC(=O)NC [Compound 33, 2-(Methylamino)-2-oxoethyl (tetradec-1-yl)carbamate] | 106 to 108 |  |
| CCCCCCCCCCCCC(C)NC(=O)OCC(=O)NC (stereo not drawn) [Compound 36, 2-(Methylamino)-2-oxoethyl (1-methyltridecyl)carbamate] | 82 to 84 |  |
| CCCCCCCCCCCCCCCNC(=O)OCC(=O)NC [Compound 37, 2-(Methylamino)-2-oxoethyl (pentadec-1-yl)carbamate] | 107 to 109 |  |
| CCCCCCCCCCCCCCCCCCCNC(=O)OCC(=O)NC [Compound 41, 2-(Methylamino)-2-oxoethyl ((methyl)octadec-1-yl)carbamate] | 85 to 87 |  |
| CCCCCCCCCCCCCCCCCCCNC(=O)OCC(=O)NC [Compound 43, 2-(Methylamino)-2-oxoethyl (nonadec-1-yl)carbamate] | 113 to 115 |  |
| CC/C=C/C/C=C/C/C=C/CCCCCCCCCCNC(=O)OCC(=O)NC [Compound 45, 2-(Methylamino)-2-oxoethyl ((11E,14E,17E)-icosa-11,14,17-trien-1-yl)carbamate] | 57 to 59 |  |
| CCCCC/C=C/C/C=C/CCCCCCCCCCNC(=O)OCC(=O)NC [Compound 46, 2-(Methylamino)-2-oxoethyl ((11E,14E)-icosa-11,14-dien-1-yl)carbamate] | 58 to 60 |  |
| CCCCCCCC/C=C/CCCCCCCCCCNC(=O)OCC(=O)NC [Compound 47, 2-(Methylamino)-2-oxoethyl ((11E)-icosa-11-en-1-yl)carbamate] | 77 to 79 | 154 |

Further lines, results first:

| melting point [°C] | IC50 [1] [nM] | Compound |
| --- | --- | --- |
| 85 to 87 |  | CCC/C=C/CNC(=O)OCC(=O)NC [Compound 2, 2-(Methylamino)-2-oxoethyl ((2E)-hex-2-en-1-yl)carbamate] |
| 126 to 128 |  | CCC/C=C/CNC(=O)OCC(N)=O [Compound 3, 2-Amino-2-oxoethyl ((2E)-hex-2-en-1-yl)carbamate] |
| 102 to 104 |  | CCC/C=C\CNC(=O)OCC(N)=O [Compound 4, 2-Amino-2-oxoethyl ((2Z)-hex-2-en-1-yl)carbamate] |
| 138 to 140 |  | CC/C=C/CCNC(=O)OCC(N)=O [Compound 6, 2-Amino-2-oxoethyl ((3E)-hex-3-en-1-yl)carbamate] |
| 72 to 74 |  | CC/C=C\CCNC(=O)OCC(=O)NC [Compound 7, 2-(Methylamino)-2-oxoethyl ((3Z)-hex-3-en-1-yl)carbamate] |
| 88 to 90 |  | CC/C=C/CCNC(=O)OCC(=O)NC [Compound 8, 2-(Methylamino)-2-oxoethyl ((3E)-hex-3-en-1-yl)carbamate] |
| 74 to 76 |  | CCC/C=C\CNC(=O)OCC(=O)NC [Compound 9, 2-(Methylamino)-2-oxoethyl ((2Z)-hex-2-en-1-yl)carbamate] |
| 86 to 88 |  | CCCCCCNC(=O)OCC(=O)NC [Compound 10, 2-(Methylamino)-2-oxoethyl (hex-1-yl)carbamate] |
| 87 to 89 | 91 | CCCCCCCNC(=O)OCC(=O)NC [Compound 13, 2-(Methylamino)-2-oxoethyl (hept-1-yl)carbamate] |
| 80 to 82 |  | CCCCC/C=C/CNC(=O)OCC(=O)NC [Compound 14, 2-(Methylamino)-2-oxoethyl ((2E)-oct-2-en-1-yl)carbamate] |
| 126 to 128 |  | CCCCC/C=C/CNC(=O)OCC(N)=O [Compound 15, 2-Amino-2-oxoethyl ((2E)-oct-2-en-1-yl)carbamate] |
| 62 to 64 |  | CCCC/C=C\CCNC(=O)OCC(=O)NC [Compound 16, 2-(Methylamino)-2-oxoethyl ((3Z)-oct-3-en-1-yl)carbamate] |
| 113 to 115 |  | CCCC/C=C\CCNC(=O)OCC(N)=O [Compound 17, 2-Amino-2-oxoethyl ((3Z)-oct-3-en-1-yl)carbamate] |
| 122 to 124 |  | CC/C=C\CCCCNC(=O)OCC(N)=O [Compound 18, 2-Amino-2-oxoethyl ((5Z)-oct-5-en-1-yl)carbamate] |
| 69 to 71 |  | CC/C=C\CCCCNC(=O)OCC(=O)NC [Compound 19, 2-(Methylamino)-2-oxoethyl ((5Z)-oct-5-en-1-yl)carbamate] |
| 122 to 124 |  | C=CCCCCCCNC(=O)OCC(N)=O [Compound 20, 2-Amino-2-oxoethyl (oct-7-en-1-yl)carbamate] |
| 72 to 74 |  | C=CCCCCCCNC(=O)OCC(=O)NC [Compound 21, 2-(Methylamino)-2-oxoethyl (oct-7-en-1-yl)carbamate] |
| 95 to 97 |  | CCCCCCCCCNC(=O)OCC(=O)NC [Compound 25, 2-(Methylamino)-2-oxoethyl (non-1-yl)carbamate] |
| 120 to 123 |  | CC/C=C\CCCCCCCCCCNC(=O)OCC(N)=O [Compound 31, 2-amino-2-oxoethyl ((11Z)-tetradec-11-en-1-yl)carbamate] |
| 79 to 81 |  | CC/C=C\CCCCCCCCCCNC(=O)OCC(=O)NC [Compound 32, 2-(Methylamino)-2-oxoethyl ((11Z)-tetradec-11-en-1-yl)carbamate] |
| 127 to 129 |  | CCCCCC/C=C\CCCCCCCCNC(=O)OCC(N)=O [Compound 34, 2-Amino-2-oxoethyl ((9Z)-hexadec-9-en-1-yl)carbamate] |
| 69 to 71 |  | CCCCCC/C=C\CCCCCCCCNC(=O)OCC(=O)NC [Compound 35, 2-(Methylamino)-2-oxoethyl ((9Z)-hexadec-9-en-1-yl)carbamate] |
| 100 to 102 |  | CCCCCCCCCCC/C=C\CCCCCNC(=O)OCC(N)=O [Compound 39, 2-Amino-2-oxoethyl ((6Z)-octadec-6-en-1-yl)carbamate] |
| 72 to 74 |  | CCCCCCCCCCC/C=C\CCCCCNC(=O)OCC(=O)NC [Compound 40, 2-(Methylamino)-2-oxoethyl ((6Z)-octadec-6-en-1-yl)carbamate] |

From patent US7476756B2, “Alkyl-, alkenyl- and alkynylcarbamate derivatives, their preparation and their application in therapeutics” (Sanofi-Aventis, priority 2005, dated 2009)
